# Data from patent US20140010806A1, “Treatment of Ocular Diseases” (priority 2012, published 2014).
# Key:
# MG-63 cells = assay: Reversal of dexamethasone effects in MG-63 osteoblast cells; type: cell-based, human; conditions: 30 nM dexamethasone
# Description: The capacity of 17α-ethynyl-5-androstene-3β,7β,17β-triol to reverse adverse effects of glucocorticoids in bone growth was shown in the human MG-63 osteosarcoma cell line. MG-63 cells are osteoblasts, which are cells that mediate bone growth. This cell line has been used extensively to study bone biology and to characterize the biological activity of compounds for treatment of bone loss conditions (e.g., B. D. Boyan et al., J. Biol. Chem., 264(20):11879-11886, 1989; L. C. Hofbauer et al., Endocrinology, 140(10):4382-4389, 1999). Adverse toxicities associated with elevated glucocorticoid levels include a decrease in the production of IL-6 and IL-8 by osteoblasts, including the MG-63 cell line, and an increase in the expression of the 11β-hydroxysteroid dehydrogenase type 1 enzyme (11β-HSD). Increased 11β-hydroxysteroid dehydrogenase type 1 enzyme results in increased levels of endogenous glucocorticoid activity by converting endogenous cortisone to the active cortisol, which inhibits bone growth. The 11β-HSD enzyme is expressed in liver, adipose tissue, brain and bone tissues. Cortisol generated by 11β-HSD-1 contributes to osteoporosis and disorders such as stroke, neuron death, depression and Parkinson Disease. Decreases in IL-6, IL-8 and osteoprotegerin are associated with decreased bone growth by osteoblasts.
# [1] = test system: experimental autoimmune encephalomyelitis (EAE); assay: PLP-induced experimental autoimmune encephalomyelitis (EAE); type: in vivo, SJL mice; conditions: for cumulative incidence of EAE or lethality: 0.1 mg q.d. po; for course of EAE compared to vehicle-treated mice: 0.1 mg q.d. po from clinical onset to day 30 post immunization; for mean cumulative score, follow-up period (day 31 to day 54, post treatment): after end of treatment on day 30
# NF-κB = assay: LPS induced inflammation in mice, activated NF-κB in spleen cell nuclei; type: in vivo, ICR mice; conditions: about 40 mg/kg i.p. 24 hours before and 1 hour after LPS; spleens 1.5 hours after LPS
# Method: The capacity of selected compounds to treat LPS induced inflammation in mice was examined by a protocol similar to the protocol described above. Five groups of three ICR mice weighing about 30 g were each treated by intraperitoneal injection with 120 μL vehicle (30% sulfobutylether-cyclodextrin in water), androst-5-ene-3α,7β,16α,17β-tetrol in vehicle, androst-5-ene-3β,4β,16α,17β-tetrol in vehicle or 4β-acetoxyandrost-5-ene-3β,16α,17β-triol in vehicle. All drug and vehicle formulations were solutions, not suspensions. The sulfobutylether-cyclodextrin was obtained commercially (Cydex Pharmaceuticals, Inc., Lexena, Kans.). There were two vehicle control groups one group received vehicle alone and the other received vehicle plus LPS. […] Drug was administered at about 40 mg/kg (1.2 mg drug/animal for each administration of the drugs). Spleens were harvested from the animals at 1.5 hours after injection of LPS and spleen cells were lysed and assayed for activated NF-κB by isolating nuclei from spleen cells and measuring NF-κB from the lysed nuclei. […] The level of activated NF-κB in spleen cells from the animals that were treated with vehicle and no LPS, was essentially the same as the activated NF-κB in spleen cells from drug treated animals.
# osteoprotegerin = assay: Osteoprotegerin levels in mice treated daily with dexamethasone; type: in vivo; conditions: vehicle and dexamethasone at 10 μg/day for 23 days (positive control group)
# Method: Osteoprotegerin levels in mice that were treated with vehicle and dexamethasone at 10 μg/day (positive control group) had 3.3 pmol/L osteoprotegerin, while animals treated with vehicle, dexamethasone and 17α-ethynyl-5-androstene-3β,7β,17β-triol at 4 mg/kg/day had 6.4 pmol/L osteoprotegerin (p<0.05).
Structure (SMILES),cumulative incidence of EAE or lethality [1],course of EAE compared to vehicle-treated mice [1],decrease of the level of NF-κB activation compared to the LPS+vehicle control group (NF-κB),further results
"C[C@]12CC[C@H]3[C@@H]([C@H](O)C=C4C[C@@H](O)CC[C@@]43C)[C@@H]1C[C@@H](O)[C@@H]2O [3β,7α,16α,17β-tetrahydroxyandrost-5-ene]",,,,reversal of the decrease in osteoprotegerin synthesis by MG-63 cells (MG-63 cells; compound at 10 nM): near normal osteoprotegerin levels
"C[C@]12CC[C@H](O)CC1=CC[C@@H]1[C@@H]2CC[C@@]2(C)[C@H]1CC[C@@]2(O)C(F)(F)F [17α-trifluoromethylandrost-5-ene-3β,17β-diol]",none of these 3 compounds significantly influenced,powerful anti-inflammatory properties,,
"C#C[C@@]1(O)CC[C@H]2[C@@H]3[C@@H](O)C=C4C[C@@H](O)CC[C@]4(C)[C@H]3CC[C@@]21C [17β-ethynylandrost-5-ene-3β,7β,17α-triol]",,powerful anti-inflammatory properties,,"mean cumulative score, follow-up period (day 31 to day 54, post treatment) [1]: 18.4±20.6"
"C[C@]12CC[C@H]3[C@@H]([C@@H](O)C=C4C[C@H](O)CC[C@@]43C)[C@@H]1C[C@@H](O)[C@@H]2O [3α,7β,16α,17β-tetrahydroxyandrost-5-ene]",,,about 50%,reversal of the decrease in osteoprotegerin synthesis by MG-63 cells (MG-63 cells; compound at 10 nM): normal osteoprotegerin levels
"CC(=O)O[C@@H]1C2=CC[C@H]3[C@@H]4C[C@@H](O)[C@H](O)[C@@]4(C)CC[C@@H]3[C@@]2(C)CC[C@@H]1O [4β-acetoxyandrost-5-ene-3β,16α,17β-triol]",,,about 50%,
"C[C@]12CC[C@H]3[C@@H]([C@@H](O)C=C4C[C@@H](O)CC[C@@]43C)[C@@H]1C[C@@H](O)[C@@H]2O [3β,7β,16α,17β-tetrahydroxyandrost-5-ene]",none of these 3 compounds significantly influenced,,,"course of EAE compared to vehicle-treated mice ([1]; listed as androst-5-ene-3β,7β,16α,17β-tetrol): powerful anti-inflammatory properties"
"C[C@]12CC[C@H]3[C@@H](CC=C4C[C@](O)(C(F)(F)F)CC[C@@]43C)[C@@H]1CC[C@@H]2O [3α-trifluoromethylandrost-5-ene-3β,17β-diol]",none of these 3 compounds significantly influenced,powerful anti-inflammatory properties,,"mean cumulative score, follow-up period (day 31 to day 54, post treatment) [1]: 10.8±10.3"
"CC12CCC(O)CC1=CC(O)C1C2CCC2(C)C(O)C(O)CC12 (stereo not drawn) [5-androstene-3β,7β,16α,17β-triol]",,,,reversal of the decrease in osteoprotegerin synthesis by MG-63 cells (MG-63 cells; compound at 0.1 μM): normal osteoprotegerin levels
"C[C@]12CC[C@H]3[C@@H](CC=C4[C@@H](O)[C@@H](O)CC[C@@]43C)[C@@H]1C[C@@H](O)[C@@H]2O [androst-5-ene-3β,4β,16α,17β-tetrol]",,,about 50%,
"C[C@@H]1C[C@H]2[C@@H]3CCC4=CC(=O)C=C[C@]4(C)[C@@]3(F)[C@@H](O)C[C@]2(C)[C@@]1(O)C(=O)CO [dexamethasone, reference compound]",,,,osteoprotegerin levels in mice (osteoprotegerin): 3.3 pmol/L
